# Test results reported in US20130310379A1, “MODULATORS OF METHYL MODIFYING ENZYMES, COMPOSITIONS AND USES THEREOF” (CONSTELLATION PHARMACEUTICALS, priority 2010, published 2013).
# What was measured:
# [1] = biological target: Y641N EZH2 (Homo sapiens, UniProt Q15910, Y641N); assay: Y641N EZH2 assay: performed as the EZH2 assay, using reconstituted H3K27Me2 oligonucleosomes as substrate; format: biochemical
# Description: Assays were carried out by mixing rPRC2 together with biotinylated oligonucleosome substrates in the presence of the radio-labeled enzyme co-factor, S-adenosyl-L-methionine (^3H SAM) (Perkin Elmer) and monitoring the enzymatically mediated transfer of tritiated methyl groups from ^3H SAM to histone lysine residues. The amount of resulting tritated methylhistone product was measured by first capturing the biotinylated oligonuclesomes in streptavidin (SAV) coated FlashPlates (Perkin Elmer), followed by a wash step to remove un-reacted ^3H SAM, and then counting on a TopCount NXT 384 well plate scintillation counter (Perkin Elmer). The final assay conditions for EZH2 were as follows: 50 mM Tris Buffer pH 8.5, 1 mM DTT, 69 uM Brij-35 detergent, 5.0 mM MgCl2, 0.1 mg/mL BSA, 0.2 uM ^3H SAM, 0.2 uM biotinylated oligonucleosomes, 3.6 uM H3K27me3 peptide and 2 nM EZH2.
# Compound IC50 measurements were obtained as follows: Compounds were first dissolved in 100% DMSO as 10 mM stock solutions. […] A 12.5 uL volume of the HMT enzyme, H3K27me3 peptide and oligonucleosome substrate in assay buffer was added to each well of the assay plate using a Multidrop Combi (ThermoFisher). Compounds were pre-incubated with the enzyme for 20 min, followed by initiation of the methyltransferase reaction by addition of 12.5 uL of 3H SAM in assay buffer (final volume=25 uL). The final concentrations of compounds ranged from a top default concentration of 80 uM down to 0.16 uM in ten 2-fold dilution steps. Reactions were carried out for 60 minutes and quenched with 20 uL per well of 1.96 mM SAH, 50 mM Tris PH 8.5, 200 mM EDTA. Stopped reactions were transferred to SAV coated Flashplates (Perkin Elmer), incubated for 120 min, washed with a plate washer, and then read on the TopCount NXT (1.0 min/well) to measure the amount of methylhistone product formed during the reaction. The amount of methylhistone product was compared with the amount of product formed in the 0% and 100% inhibition control wells allowing the calculation of % Inhibition in the presence of the individual compounds at various concentrations. IC50's were computed using a 4 parameter fit non-linear curve fitting software package (XLFIT, part of the database package, ActivityBase (IDBS)) where the four parameters were IC50, Hill slope, pre-transitional baseline (0% INH), and post-transitional baseline (100% INH); with the latter two parameters being fixed to zero and 100%, respectively, by default.
# [2] = biological target: EZH2 (Homo sapiens, UniProt Q15910); assay: EZH2 assay: rPRC2 with biotinylated oligonucleosome substrates and 3H SAM, FlashPlate scintillation counting, IC50; format: biochemical; conditions: rPRC2, biotinylated oligonucleosome substrates, 3H SAM; read-out: EZH2 IC50
# Chain of EZH2 (Q15910 whole entry): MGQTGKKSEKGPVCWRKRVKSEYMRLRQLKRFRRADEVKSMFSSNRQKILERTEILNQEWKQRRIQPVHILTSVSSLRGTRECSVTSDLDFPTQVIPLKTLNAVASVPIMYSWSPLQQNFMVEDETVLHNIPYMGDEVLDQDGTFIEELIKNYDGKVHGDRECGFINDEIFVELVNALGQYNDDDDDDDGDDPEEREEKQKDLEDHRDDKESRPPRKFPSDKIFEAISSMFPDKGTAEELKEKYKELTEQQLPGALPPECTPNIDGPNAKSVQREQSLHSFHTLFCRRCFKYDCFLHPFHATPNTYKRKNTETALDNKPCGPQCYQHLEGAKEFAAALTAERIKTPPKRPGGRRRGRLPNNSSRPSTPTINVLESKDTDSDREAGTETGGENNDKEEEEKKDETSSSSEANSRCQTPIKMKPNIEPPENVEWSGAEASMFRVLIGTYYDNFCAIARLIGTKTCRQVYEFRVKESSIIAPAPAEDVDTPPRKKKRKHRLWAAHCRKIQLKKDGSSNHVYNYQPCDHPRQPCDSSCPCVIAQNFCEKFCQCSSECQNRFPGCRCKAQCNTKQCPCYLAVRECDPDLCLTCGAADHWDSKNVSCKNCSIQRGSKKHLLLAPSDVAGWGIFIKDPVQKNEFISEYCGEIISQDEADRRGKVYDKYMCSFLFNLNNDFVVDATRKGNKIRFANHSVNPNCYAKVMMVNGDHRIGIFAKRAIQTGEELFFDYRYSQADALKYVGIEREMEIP
# Chain of EZH2 (O75530 whole entry partner): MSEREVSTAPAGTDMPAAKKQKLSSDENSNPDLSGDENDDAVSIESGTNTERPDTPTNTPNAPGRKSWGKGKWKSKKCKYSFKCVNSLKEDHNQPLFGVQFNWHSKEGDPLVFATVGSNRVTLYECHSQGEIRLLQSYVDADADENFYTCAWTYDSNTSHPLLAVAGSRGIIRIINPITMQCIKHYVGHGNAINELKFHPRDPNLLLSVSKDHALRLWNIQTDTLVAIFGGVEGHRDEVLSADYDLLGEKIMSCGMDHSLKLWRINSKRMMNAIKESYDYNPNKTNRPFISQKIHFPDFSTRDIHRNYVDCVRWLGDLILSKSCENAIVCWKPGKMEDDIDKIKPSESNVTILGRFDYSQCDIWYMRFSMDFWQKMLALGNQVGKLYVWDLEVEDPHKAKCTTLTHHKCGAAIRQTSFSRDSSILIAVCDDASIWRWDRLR
# Chain of EZH2 (Q15022 whole entry partner): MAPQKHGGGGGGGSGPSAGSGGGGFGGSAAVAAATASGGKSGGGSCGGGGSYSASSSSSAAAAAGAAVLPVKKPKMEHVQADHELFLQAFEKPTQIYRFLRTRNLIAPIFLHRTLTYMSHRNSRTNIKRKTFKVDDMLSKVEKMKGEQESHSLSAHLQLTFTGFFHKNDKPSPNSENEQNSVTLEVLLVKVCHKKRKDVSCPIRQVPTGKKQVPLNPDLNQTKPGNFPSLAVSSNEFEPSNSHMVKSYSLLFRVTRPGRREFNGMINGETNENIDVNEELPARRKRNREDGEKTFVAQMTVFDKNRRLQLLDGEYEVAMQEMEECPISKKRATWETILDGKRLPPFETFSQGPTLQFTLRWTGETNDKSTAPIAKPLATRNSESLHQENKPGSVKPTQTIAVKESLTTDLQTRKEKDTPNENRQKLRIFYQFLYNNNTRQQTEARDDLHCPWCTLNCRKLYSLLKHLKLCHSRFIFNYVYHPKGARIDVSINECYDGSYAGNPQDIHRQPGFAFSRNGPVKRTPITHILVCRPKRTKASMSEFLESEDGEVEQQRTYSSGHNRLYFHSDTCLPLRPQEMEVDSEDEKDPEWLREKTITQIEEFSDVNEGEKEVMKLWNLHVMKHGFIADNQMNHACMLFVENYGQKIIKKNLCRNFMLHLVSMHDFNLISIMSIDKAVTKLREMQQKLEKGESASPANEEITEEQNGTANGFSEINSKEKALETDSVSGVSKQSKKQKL
# Outline: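 IC50 from 4-parameter fit, baselines fixed at 0 and 100%. Compounds (top 80 uM, 2-fold series to 0.16 uM) pre-incubated 20 min with 2 nM EZH2-PRC2; 60-min methylation in pH 8.5 Tris with 0.2 uM 3H SAM, 0.2 uM oligonucleosomes, 3.6 uM H3K27me3 peptide.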
# Chain of Y641N EZH2 (Q15910 whole entry Y641N): as the sequence (Q15910 whole entry) above, with Y641N counted along it
# Chain of Y641N EZH2 (O75530 whole entry partner): as the sequence (O75530 whole entry partner) above
# Chain of Y641N EZH2 (Q15022 whole entry partner): as the sequence (Q15022 whole entry partner) above
Compound,IC50 [1] [µM],IC50 [2] [µM]
CC1(C)CC(NC(=O)c2ccc(Oc3cccc(-c4ccc(N)nc4)c3C#N)c(Cl)c2)CC(C)(C)N1 [Compound I-312],< 5,< 5
CC1(C)CC(NC(=O)c2ccc(Oc3cccc(-c4ccccn4)c3C#N)c(Cl)c2)CC(C)(C)N1 [Compound I-367],< 5,< 5
COc1cc(-c2cccc(Oc3ccc(C(=O)NC4CC(C)(C)NC(C)(C)C4)cc3Cl)c2C#N)cc(C)n1 [Compound I-573],5 to 20,< 5
CC1(C)CC(NC(=O)c2ccc(Oc3ccccc3C#N)c(F)c2)CC(C)(C)N1 [Compound I-217],20 to 80,< 5
CC1(C)CC(NC(=O)c2ccc(Oc3cccc(N4CCOCC4)c3)c(Cl)c2)CC(C)(C)N1 [Compound I-590],> 80,20 to 80
CC1(C)CC(NC(=O)c2ccc(Oc3cccc(-c4cncc(C#N)c4)c3C#N)c(Cl)c2)CC(C)(C)N1 [Compound I-571],< 5,< 5
CC1(C)CC(NC(=O)c2ccc(Oc3ccccc3-c3cnc4ccccc4c3)c(Cl)c2)CC(C)(C)N1 [Compound I-320],5 to 20,< 5
CC1(C)CC(NC(=O)c2ccc(Oc3ccccc3C#N)c(CCc3ccccc3)c2)CC(C)(C)N1 [Compound I-199],5 to 20,< 5
CC1(C)CC(NC(=O)c2ccc(COc3cccc(Br)c3)c(Br)c2)CC(C)(C)N1 [Compound I-216],20 to 80,5 to 20
CCc1cccc(Oc2ccc(C(=O)NC3CC(C)(C)NC(C)(C)C3)cc2Cl)c1-c1ccncc1 [Compound I-342],> 80,20 to 80
CC1(C)CC(NC(=O)c2ccc(Oc3cccc(-c4ccnc(O)c4)c3C#N)c(Cl)c2)CC(C)(C)N1 [Compound I-583],< 5,< 5
CCc1cccc(Oc2ccc(C(=O)NC3CC(C)(C)NC(C)(C)C3)cc2C)c1C#N [Compound I-266],< 5,< 5
Cc1cc(C(=O)NC2CC(C)(C)NC(C)(C)C2)ccc1Oc1ccccc1C#N [Compound I-223],5 to 20,< 5
"CC1(C)CC(/C=C/c2ccc(Oc3cccc(-c4ccncn4)c3C#N)c(Cl)c2)CC(C)(C)N1 [Compound I-592, (E)-2-(2-chloro-4-(2-(2,2,6,6-tetramethylpiperidin-4-yl)vinyl)phenoxy)-6-(pyrimidin-4-yl)benzonitrile]",5 to 20,< 5
CCOc1cc(-c2cccc(Oc3ccc(C(=O)NC4CC(C)(C)NC(C)(C)C4)cc3Cl)c2C#N)ccn1 [Compound I-556],> 80,< 5
CC1(C)CC(NC(=O)c2ccc(Oc3cccc(Cl)c3C#N)c(Cl)c2)CC(C)(C)N1 [Compound I-256],< 5,< 5
CN(C)c1cccc(Oc2ccc(C(=O)NC3CC(C)(C)NC(C)(C)C3)cc2Cl)c1C#N [Compound I-334],5 to 20,< 5
CC1(C)CC(NC(=O)c2ccc(Oc3cccc(N4CCCC4)c3)c(Cl)c2)CC(C)(C)N1 [Compound I-379],20 to 80,20 to 80

Compound,IC50 [1] [µM],IC50 [2] [µM]
CNCc1cccc(Oc2ccc(C(=O)NC3CC(C)(C)NC(C)(C)C3)cn2)c1 [Compound I-415],> 80,20 to 80
CC(=O)N1CCN(c2cccc(Oc3ccc(C(=O)NC4CC(C)(C)NC(C)(C)C4)cc3Cl)c2)CC1 [Compound I-499],> 80,20 to 80
Cc1cc(-c2cccc(Oc3ccc(C(=O)NC4CC(C)(C)NC(C)(C)C4)cc3Cl)c2C#N)ccn1 [Compound I-584],< 5,< 5
CC1(C)CC(NC(=O)c2ccc(Oc3cccc(-c4cn[nH]c4)c3C#N)c(Cl)c2)CC(C)(C)N1 [Compound I-307],< 5,< 5
CN(C)c1ccc(-c2cccc(OCc3ccc(C(=O)NC4CC(C)(C)NC(C)(C)C4)cc3)c2)cn1 [Compound I-154],20 to 80,20 to 80
"CC1(C)CC(OCc2ccc(Oc3cccc(-c4ccncn4)c3C#N)c(Cl)c2)CC(C)(C)N1 [Compound I-591, 2-(2-chloro-4-(((2,2,6,6-tetramethylpiperidin-4-yl)oxy)methyl)phenoxy)-6-(pyrimidin-4-yl)benzonitrile]",20 to 80,< 5
CC1(C)CC(NC(=O)c2ccc(Oc3cccc(Br)c3C#N)c(Cl)c2)CC(C)(C)N1 [Compound I-254],< 5,< 5
CC1(C)CC(NC(=O)c2ccc(/C=C/c3ccccc3)cc2)CC(C)(C)N1 [Compound I-330],> 80,20 to 80
CC1(C)CC(NC(=O)c2ccc(Oc3cccc(N4CCCC4=O)c3)c(Cl)c2)CC(C)(C)N1 [Compound I-385],> 80,5 to 20
CC1(C)CC(NC(=O)c2ccc(Cn3ccnc3)cc2)CC(C)(C)N1 [Compound I-404],20 to 80,> 80
"CC1(C)CC(OC(=O)c2ccc(Oc3cccc(-c4ccnnc4)c3C#N)c(Cl)c2)CC(C)(C)N1 [Compound I-504, 2,2,6,6-tetramethylpiperidin-4-yl 3-chloro-4-(2-cyano-3-(pyridazin-4-yl)phenoxy)benzoate]",< 5,< 5
CC1(C)CC(NC(=O)c2ccc(Oc3cccc(-c4cccnc4)c3C#N)c(Br)c2)CC(C)(C)N1 [Compound I-364],< 5,< 5
COc1cccc(Oc2ccc(C(=O)NC3CC(C)(C)NC(C)(C)C3)cc2Cl)c1C#N [Compound I-333],5 to 20,< 5
CC1(C)CC(NC(=O)c2ccc(Oc3cccc(-c4ccnc(N)c4)c3C#N)c(Cl)c2)CC(C)(C)N1 [Compound I-375],< 5,< 5
CC1(C)CC(N2Cc3cc(Oc4ccccc4C#N)c(Cl)cc3C2=O)CC(C)(C)N1 [Compound I-356],> 80,> 80
CC1(C)CC(NC(=O)c2ccc(Oc3cccc(-c4cccnc4)c3C#N)c(Cl)c2)CC(C)(C)N1 [Compound I-308],< 5,< 5
CC1(C)CC(NC(=O)c2ccc(Oc3cccc(C4CCCO4)c3C#N)c(Cl)c2)CC(C)(C)N1 (stereo not drawn) [Compound I-560],> 80,< 5
CC1(C)CC(NC(=O)c2ccc(Oc3ccccc3C#N)c(Br)c2)CC(C)(C)N1 [Compound I-186],5 to 20,< 5
